In US20260049089A1, “KRAS INHIBITOR COMPOUND” (SHANGHAI APEIRON THERAPEUTICS COMPANY LIMITED, priority 2022, published 2026) one finds IC50 data, which are given here for 18 molecules.

Read-outs that look alike come from different tables or passages of the source.

Holding throughout (type): cell-based
In assay [1] the test system is AsPC-1 cells. As to the kind of experiment: 3D cell proliferation assay (CellTiter-Glo 3D), AsPC-1. The conditions noted are these: 5 days, read-out: 3D Proliferation Inhibition AsPC-1_IC50. As for the experimental part: (§1) Using a nanoliter liquid handling system (LABCYTE, P-0200), the diluted test compounds were added to a 384-well low-adsorption cell culture plate. Cells were seeded into the wells, and the plate was placed in an incubator at 37° C. with 5% CO2. After co-incubating the compounds and cells for 5 days, CellTiter-Glo® 3D reagent was added. Luminescence values were measured using an EnVision Multilabel Plate Reader (luminescence is proportional to the ATP content in the system, and ATP content directly reflects the number of viable cells). Finally, the IC50 values (half-maximal inhibitory concentrations) of the compounds were determined using non-linear fitting equations in XLFit software with the following parameters: […]
(§2) X: Logarithm of compound concentration • Y: Inhibition rate (%)
(§3) [formula] • Negative control: DMSO • Positive control: Medium only

The test system of assay [2] is AGS cells. As to the kind of experiment: 3D cell proliferation assay (CellTiter-Glo 3D), AGS. The conditions noted are these: 5 days, read-out: 3D Proliferation Inhibition AGS_IC50. As for the experimental part: as §1, §2, §3
The subject of assay [3] is pERK in AGS cells. As to the kind of experiment: ERK phosphorylation cell assay, AGS. The conditions noted are these: 3 hours compound incubation, read-out: pERK AGS_IC50. How it is done:
(§4) • Day 1: AGS cells were seeded into a 384-well cell culture plate and incubated overnight at 37° C. with 5% CO2 in a cell culture incubator. • Day 2: Compounds were added to the plate using an Echo550 liquid handler, followed by incubation at 37° C. with 5% CO2 in a cell culture incubator for 3 hours. Subsequently, the cells were fixed with paraformaldehyde, permeabilized with methanol, and blocked with blocking buffer. A primary antibody mixture (rabbit anti-pERK, mouse anti-GAPDH) was added, and the plate was incubated overnight at 4° C. • Day 3: The primary antibodies were removed, and a secondary antibody mixture (goat anti-rabbit 800CW, goat anti-mouse 680RD) was added. The plate was incubated at room temperature in the dark. After three washes with PBST, the plate was inverted and centrifuged for 1 minute. Fluorescence signal values were read using an Odyssey CLx imaging system.
(§5) [formula] • Negative control: DMSO • Positive control: 10 μM Reference • Fitted using XLFit 5.0 with the following parameters:
(§6) [formula] • X: Log of compound concentration • Y: Mean relative expression levels of p-ERK across replicates

The subject of assay [4] is pERK in AsPC-1 cells. As to the kind of experiment: ERK phosphorylation cell assay, AsPC-1. The conditions noted are these: read-out: pERK AsPC-1_IC50. How it is done:
[Worded in the source for another cell line; this cell line is reported under the same test.] as §4, §5, §6

[5] abbreviates: Homo sapiens, ASPC1, AsPC-1 cells.

In the case of `CN1CCCCCc2c(F)ccc3cc(O)cc(c23)-c2c1cc1c(N3CCC[C@@](C)(O)C3)nc(OC[C@@]34CCCN3C[C@H](F)C4)nc1c2F` (single isomer, unassigned) [Example 6A], the IC50 in assay [1] was found to be 202 nM; in assay [2], 127 nM; in assay [3] it was 30 nM.

For the molecule `CN1CCCCCc2c(F)ccc3cc(O)cc(c23)-c2c1cc1c(N3CCC[C@@](C)(O)C3)nc(OC[C@@]34CCCN3C[C@H](F)C4)nc1c2F` (single isomer, unassigned) [Example 6B], the IC50 in assay [1] is 1370 nM; in assay [2], 1040 nM; in assay [3], 450 nM.

As to `O=C1CCCCc2c(F)ccc3cc(O)cc(c23)-c2c(cc3c(N4CC5CCC(C4)N5)nc(OC[C@@]45CCCN4C[C@H](F)C5)nc3c2F)N1` [Example 4], the IC50 is 4870 nM in assay [1] (Homo sapiens, ASPC1, 120 h); 848 nM in assay [2] (Homo sapiens, AGS, 120 h); 331 nM in assay [3] (Homo sapiens, AGS, 3 h).

As for `C[C@@]1(O)CCCN(c2nc(OCC34CCCN3CCC4)nc3c(F)c4c(cc23)NCCCCCc2c(F)ccc3cccc-4c23)C1` [Example 7, (R)-1-(3,15-Difluoro-13-((tetrahydro-1H-pyrazin-7a(5H)-yl)methoxy)-4,5,6,7,8,9-hexahydronaphtho[1′,8′:4,5,6]azecino[2,3-g]quinazolin-11-yl)-3-methylpiperidin-3-ol], the IC50 was 2860 nM in assay [1] (Homo sapiens, ASPC1, 120 h); 2290 nM in assay [2] (Homo sapiens, AGS, 120 h); 3470 nM in assay [3] (Homo sapiens, AGS, 3 h).

With `C[C@@]1(O)CCCN(c2nc(OCC34CCC(CC3)CO4)nc3c(F)c4c(cc23)NCCCCCc2c(F)ccc3cc(O)cc-4c23)C1` [Example 18A], the IC50 was greater than 10000 nM in assay [4] (setting [5]) and greater than 10000 nM in assay [3] (Homo sapiens, AGS, 3 h).

For the molecule `CC1(O)CCCN(c2nc(OCC34CCC(CC3)CO4)nc3c(F)c4c(cc23)NCCCCCc2c(F)ccc3cc(O)cc-4c23)C1` [Example 18B, (R)-13-(((2-oxabicyclo[2.2.2]octan-1-yl)methoxy)-3,15-difluoro-11-(3-hydroxy-3-methylpiperidin-1-yl)-4,5,6,7,8,9-hexahydro-naphtho[1′,8′:4,5,6][1]azacycloundecino[2,3-g]quinazoline-17-ol], the IC50 in assay [4] (AsPC-1 cells) and in assay [3] was greater than 10000 nM in each case.

For the molecule `C[C@@]1(O)CCCN(c2nc(OCC34CCC(CC3)OC4)nc3c(F)c4c(cc23)NCCCCCc2c(F)ccc3cc(O)cc-4c23)C1` [Example 19], the IC50 is greater than 10000 nM in assay [4] (setting [5]) and greater than 10000 nM in assay [3] (Homo sapiens, AGS, 3 h).

On to `COC12CCC(COc3nc(N4CCC[C@@](C)(O)C4)c4cc5c(c(F)c4n3)-c3cc(O)cc4ccc(F)c(c34)CCCCCN5)(CC1)CC2` [Example 20A], for which the IC50 in assay [4] (setting [5]) is greater than 10000 nM; in assay [3] (Homo sapiens, AGS, 3 h), greater than 10000 nM.

As for `C=C1CN2CCCC2(COc2nc(N3CCC[C@@](C)(O)C3)c3cc4c(c(F)c3n2)-c2cc(O)cc3ccc(F)c(c23)CCCCCN4)C1` (stereo partly drawn) [Example 25], the IC50 in assay [1] (Homo sapiens, ASPC1, 120 h) was 336 nM; in assay [2] (Homo sapiens, AGS, 120 h), 112 nM.

Turning to `C[C@@]1(O)CCCN(c2nc(OCC34CCCN3CC(=C(F)F)C4)nc3c(F)c4c(cc23)NCCCCCc2c(F)ccc3cc(O)cc-4c23)C1` (stereo partly drawn) [Example 29], the IC50 amounted to 4530 nM in assay [4] (setting [5]) and 5420 nM in assay [3] (Homo sapiens, AGS, 3 h).

For the molecule `C=C1CN2CC(=C)CC2(COc2nc(N3CCC[C@@](C)(O)C3)c3cc4c(c(F)c3n2)-c2cc(O)cc3ccc(F)c(c23)CCCCCN4)C1` [Example 31], the IC50 turned out to be 225 nM in assay [4] (setting [5]) and 136 nM in assay [3] (Homo sapiens, AGS, 3 h).

In the case of `C=C1CN2CCCC2(COc2nc(N3CCC[C@@](C)(O)C3)c3cc4c(c(F)c3n2)-c2cc(O)cc3ccc(F)c(c23)CC/C=C\CN4)C1` (stereo partly drawn) [Example 32, (Z)-3,15-difluoro-11-((R)-3-hydroxy-3-methylpiperidin-1-yl)-13-((2-methylenetetrahydro-1H-pyrazin-7a(5H)-yl)methoxy)-4,5,8,9-tetrahydronaphtho[1′,8′:4,5,6][1]azacycloondecano[2,3-g]quinazolin-17-ol], the IC50 in assay [4] (setting [5]) came out at 1140 nM; in assay [3] (Homo sapiens, AGS, 3 h), 652 nM.

As for `C[C@@]1(O)CCCN(c2nc(OCC34CCCN3C3CC3C4)nc3c(F)c4c(cc23)NCCCCCc2c(F)ccc3cc(O)cc-4c23)C1` (stereo partly drawn) [Example 37, 3,15-Difluoro-13-((hexahydrocyclopropano[b]pyrrolizin-5a(3H)-yl)methoxy)-11-((R)-3-hydroxy-3-methylpiperidin-1-yl)-4,5,6,7,8,9-hexahydro-naphtho[1′,8′:4,5,6][1]azacycloundecino[2,3-g]quinazoline-17-ol], the IC50 in assay [4] (setting [5]) is 3510 nM; in assay [3] (Homo sapiens, AGS, 3 h) it was 546 nM.

Regarding `[2H]C([2H])([2H])N1C(=O)CCCCc2c(F)ccc3cc(O)cc(c23)-c2c1cc1c(N3CCC[C@@](C)(O)C3)nc(OC[C@@]34CCCN3C[C@H](F)C4)nc1c2F` [Example 41, 3,15-Difluoro-13-(((2R,7aS)-2-fluoro-tetrahydro-1H-pyrazin-7a(5H)-yl)methoxy)-17-hydroxy-11-((R)-3-hydroxy-3-methylpiperidin-1-yl)-9-(trideuteromethyl)-4,5,6,7-tetrahydronaphtho[1′,8′:4,5,6][1]azacycloundecino[2,3-g]quinazolin-8(9H)-one], the IC50 in assay [4] (setting [5]) worked out at 2790 nM; in assay [3] (Homo sapiens, AGS, 3 h) it was 307 nM.

For the molecule `C=C1CN2CCCC2(COc2nc(N3CCC[C@@](C)(O)C3)c3cc4c(c(F)c3n2)-c2cc(O)cc3ccc(F)c(c23)CCCCCN4C(C)=O)C1` (stereo partly drawn) [Example 44, 1-(3,15-Difluoro-17-hydroxy-11-((R)-3-hydroxy-3-methylpiperidin-1-yl)-13-((2-methylene-tetrahydro-1H-pyrazin-7a(5H)-yl)methoxy)-5,6,7,8-tetrahydronaphtho[1′,8′:4,5,6][1]azacycloundecino[2,3-g]quinazolin-9(4H)-yl)ethan-1-one], the IC50 in assay [1] (Homo sapiens, ASPC1, 120 h) came to 3900 nM; in assay [2] (Homo sapiens, 120 h), 1860 nM; in assay [3] (Homo sapiens), 490 nM.

Regarding `C=C1CN2CCCC2(COc2nc(N3CCC[C@@](C)(O)C3)c3cc4c(c(F)c3n2)-c2cc(O)cc3ccc(F)c(c23)CCCCCN4S(C)(=O)=O)C1` (stereo partly drawn) [Example 45, 3,15-difluoro-11-((R)-3-hydroxy-3-methylpiperidin-1-yl)-13-((2-methylenetetrahydro-1H-pyrazin-7a(5H)-yl)methoxy)-9-(methylsulfonyl)-4,5,6,7,8,9-hexahydronaphtho[1′,8′:4,5,6][1]azacycloundecano[2,3-g]quinazolin-17-ol], the IC50 came out at 4090 nM in assay [1] (Homo sapiens, ASPC1, 120 h); 3210 nM in assay [2] (Homo sapiens, AGS, 120 h); 3390 nM in assay [3] (Homo sapiens, AGS, 3 h).

Turning to `C=C1CN2CCC[C@@]2(COc2nc(N3CCC[C@@](C)(O)C3)c3cc4c(c(F)c3n2)-c2cc(OC(=O)CCCCCCCCC)cc3ccc(F)c(c23)CCOCCN4C)C1` [Example 51, 3,15-difluoro-11-((R)-3-hydroxy-3-methylpiperidin-1-yl)-9-methyl-13-(((S)-2-methylenetetrahydro-1H-pyrazin-7a(5H)-yl)methoxy)-4,5,8,9-tetrahydro-7H-naphtho[1′,8′:7,8,9111]oxa[4]azacycloundeca[5,6-g]quinazoline-17-yl decanoate], the IC50 in assay [4] (setting [5]) is 6.1 nM; in assay [3] (Homo sapiens, AGS, 3 h) it was 2.4 nM.

As for `C=C1CN2CCC[C@@]2(COc2nc(N3CCC[C@@](C)(O)C3)c3cc4c(c(F)c3n2)-c2cccc3ccc(F)c(c23)CCOCCN4)C1` [Example 53, (R)-1-(3,15-difluoro-13-(((S)-2-methylenetetrahydro-1H-pyrazin-7a(5H)-yl)methoxy)-4,5,8,9-tetrahydro-7H-naphtho[1′,8′:7,8,9][1]oxa[4]azacycloundeca[5,6-g]quinazoline-11-yl)-3-methylpiperidin-3-ol], the IC50 in assay [4] (setting [5]) amounted to 3300 nM; in assay [3] (Homo sapiens, AGS, 3 h) it was 2180 nM.
